Source: patent US8884023B2, “Pyrano [3,2-D][1,3]thiazole as glycosidase inhibitors” (priority 2011, dated 2014)

target: T1, His-Tagged hOGA (human O-GlcNAcase) (Homo sapiens, UniProt O60502); assay: biochemical; conditions: not given
T1 sequence (O60502 1-916): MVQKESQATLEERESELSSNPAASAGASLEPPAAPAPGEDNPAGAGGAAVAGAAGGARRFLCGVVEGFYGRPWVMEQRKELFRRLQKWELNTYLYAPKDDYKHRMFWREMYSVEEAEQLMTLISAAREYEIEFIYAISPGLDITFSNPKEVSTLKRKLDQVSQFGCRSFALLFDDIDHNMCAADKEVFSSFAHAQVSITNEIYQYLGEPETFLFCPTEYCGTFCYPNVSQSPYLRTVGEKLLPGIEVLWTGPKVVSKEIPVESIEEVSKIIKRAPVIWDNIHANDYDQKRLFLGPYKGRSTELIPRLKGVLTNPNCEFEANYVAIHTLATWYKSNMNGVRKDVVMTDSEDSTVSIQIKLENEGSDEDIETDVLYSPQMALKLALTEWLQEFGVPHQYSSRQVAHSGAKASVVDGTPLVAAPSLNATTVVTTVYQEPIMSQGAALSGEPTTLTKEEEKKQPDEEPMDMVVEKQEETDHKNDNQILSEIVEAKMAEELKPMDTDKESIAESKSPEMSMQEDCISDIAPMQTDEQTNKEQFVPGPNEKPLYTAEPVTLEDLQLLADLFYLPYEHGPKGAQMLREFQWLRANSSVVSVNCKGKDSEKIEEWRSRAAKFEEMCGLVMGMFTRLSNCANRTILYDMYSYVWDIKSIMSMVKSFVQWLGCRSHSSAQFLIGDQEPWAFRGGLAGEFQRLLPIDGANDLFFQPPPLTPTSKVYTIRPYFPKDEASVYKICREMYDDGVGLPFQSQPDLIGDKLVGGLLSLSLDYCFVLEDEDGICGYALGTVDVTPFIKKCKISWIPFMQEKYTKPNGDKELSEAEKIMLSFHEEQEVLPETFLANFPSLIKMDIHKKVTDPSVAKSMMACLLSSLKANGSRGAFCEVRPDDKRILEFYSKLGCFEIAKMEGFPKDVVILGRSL
Description: Human O-GlcNAcase Enzyme Inhibition Assay
The following reaction components were added to a final volume of 10 μL in McIlvaine's Buffer (pH 6.5):
20 nM His-Tagged hOGA and 10 μM Fluoroscein mono-beta-D-(2-deoxy-2-N-acetyl) glucopyranoside (FL-GlcNAc; Marker Gene Technologies Inc, Part #M1485). […] The amount of fluorescence measured was plotted against the concentration of inhibitor to produce a sigmoidal dose response curve, from which an IC50 was calculated.

| SMILES | IC50 [µM] |
| --- | --- |
| CCNC1=N[C@@H]2[C@@H](O)[C@H](O)[C@@H](Cn3cc(C4(c5ccccc5)CCCC4)nn3)O[C@@H]2S1 [compound 100] | 0.1 to 0.5 |
| CCNC1=N[C@@H]2[C@@H](O)[C@H](O)[C@@H](C(=O)NCCc3ccc(-c4ccccc4)cc3)O[C@@H]2S1 [compound no. 23, (3aR,5S,6S,7R,7aR)—N-(2-biphenyl-4-ylethyl)-2-(ethylamino)-6,7-dihydroxy-5,6,7,7a-tetrahydro-3aH-pyrano[3,2-d][1,3]thiazole-5-carboxamide] | > 1 |
| CCNC1=N[C@@H]2[C@@H](O)[C@H](O)[C@@H](Cn3cc(Cn4ccnc4-c4cccs4)nn3)O[C@@H]2S1 [compound 97] | < 0.1 |
| CCNC1=N[C@@H]2[C@@H](O)[C@H](O)[C@@H](Cn3nnnc3C(=O)c3ccccc3)O[C@@H]2S1 [compound 105] | > 1 |
| CCNC1=N[C@@H]2[C@@H](O)[C@H](O)[C@@H](C(=O)NCCc3ccc(Oc4ccccc4)cc3)O[C@@H]2S1 [compound no. 33, (3aR,5S,6S,7R,7aR)-2-(ethylamino)-6,7-dihydroxy-N-[2-(4-phenoxyphenyl)ethyl]-5,6,7,7a-tetrahydro-3aH-pyrano[3,2-d][1,3]thiazole-5-carboxamide] | > 1 |
| CCNC1=N[C@@H]2[C@@H](O)[C@H](O)[C@@H](C(=O)CCCc3ccccc3)O[C@@H]2S1 [compound no. 60, 1-[(3aR,5S,6S,7R,7aR)-2-(ethylamino)-6,7-dihydroxy-5,6,7,7a-tetrahydro-3aH-pyrano[3,2-d][1,3]thiazol-5-yl]-4-phenylbutan-1-one] | > 1 |
| CCNC1=N[C@@H]2[C@@H](OC)[C@H](O)[C@@H](CO)O[C@@H]2S1 [compound no. 15, (3aR,5R,6S,7R,7aR)-2-(ethylamino)-5-(hydroxymethyl)-7-methoxy-5,6,7,7a-tetrahydro-3aH-pyrano[3,2-d][1,3]thiazol-6-ol] | > 1 |
| CCN(C(=O)Oc1ccccc1)C1=N[C@@H]2[C@@H](O)[C@H](O)[C@@H](CO)O[C@@H]2S1 [compound no. 63, Phenyl-[(3aR,5R,6S,7R,7aR)-6,7-dihydroxy-5-(hydroxymethyl)-5,6,7,7a-tetrahydro-3aH-pyrano[3,2-d][1,3]thiazol-2-yl]ethylcarbamate] | 0.1 to 0.5 |
| CCNC1=N[C@@H]2[C@@H](O)[C@H](O)[C@@H](Cn3cc(-c4cn(S(=O)(=O)c5ccccc5)c5ccccc45)nn3)O[C@@H]2S1 [compound 98] | < 0.1 |
| CCN(C(=O)OC(C)(C)C)C1=N[C@@H]2[C@@H](O)[C@H](O)[C@@H](COCc3ccccc3)O[C@@H]2S1 [compound no. 16, Tert-butyl {(3aR,5R,6S,7R,7aR)-5-[(benzyloxy)methyl]-6,7-dihydroxy-5,6,7,7a-tetrahydro-3aH-pyrano[3,2-d][1,3]thiazol-2-yl}ethylcarbamate] | > 1 |
| CCNC1=N[C@@H]2[C@@H](O)[C@H](O)[C@@H](CN)O[C@@H]2S1 [compound no. 61, (3aR,5R,6S,7R,7aR)-5-(aminomethyl)-2-(ethylamino)-5,6,7,7a-tetrahydro-3aH-pyrano[3,2-d][1,3]thiazole-6,7-diol] | 0.1 to 0.5 |
| CCNC1=N[C@@H]2[C@@H](O)[C@H](O)[C@@H](C(=O)Nc3ccccc3)O[C@@H]2S1 [compound no. 31, (3aR,5S,6S,7R,7aR)-2-(ethylamino)-6,7-dihydroxy-N-phenyl-5,6,7,7a-tetrahydro-3aH-pyrano[3,2-d][1,3]thiazole-5-carboxamide] | > 1 |
| CCNC1=N[C@@H]2[C@@H](O)[C@H](O)[C@@H](Cn3cc(Cn4c(C(F)(F)F)nc5ccccc54)nn3)O[C@@H]2S1 [compound 95] | < 0.1 |
| CCNC1=N[C@@H]2[C@@H](O)[C@H](O)[C@@H]([C@@H](O)CCCc3ccccc3)O[C@@H]2S1 [compound no. 56, (3aR,5R,6S,7R,7aR)-2-(ethylamino)-5-((S)1-hydroxy-4-phenylbutyl)-5,6,7,7a-tetrahydro-3aH-pyrano[3,2-d][1,3]thiazole-6,7-diol] | 0.1 to 0.5 |
| CCNC1=N[C@@H]2[C@@H](O)[C@H](O)[C@@H](Cn3cc(Cn4nc(C)nc4C)nn3)O[C@@H]2S1 [compound 96] | < 0.1 |

same assay, conditions: 20 nM His-Tagged hOGA, 10 μM FL-GlcNAc, pH 6.5, 60 min room temperature; read-out: OGA enzyme inhibition (IC50)

| IC50 [µM] | SMILES |
| --- | --- |
| 0.1 to 0.5 | CCN(C(=O)OCc1ccccc1)C1=N[C@@H]2[C@@H](O)[C@H](O)[C@@H](CO)O[C@@H]2S1 [compound no. 62, benzyl [(3aR,5R,6S,7R,7aR)-6,7-dihydroxy-5-(hydroxymethyl)-5,6,7,7a-tetrahydro-3aH-pyrano[3,2-d][1,3]thiazol-2-yl]ethylcarbamate] |

same assay, conditions: read-out: OGA enzyme inhibition (IC50)

| IC50 [µM] | SMILES |
| --- | --- |
| > 1 | CCNC1=N[C@@H]2[C@@H](O)[C@H](O)[C@@H]([C@H](O)CCc3ccccc3)O[C@@H]2S1 [compound no. 54, (3aR,5R,6S,7R,7aR)-2-Ethylamino-5-((R)-1-hydroxy-3-phenyl-propyl)-5,6,7,7a-tetrahydro-3aH-pyrano[3,2-d]thiazole-6,7-diol] |
| 0.5 to 1 | CCNC1=N[C@@H]2[C@@H](O)[C@H](O)[C@@H](CNCc3ccccc3)O[C@@H]2S1 [compound no. 48, (3aR,5R,6S,7R,7aR)-5-[(benzylamino)methyl]-2-(ethylamino)-5,6,7,7a-tetrahydro-3aH-pyrano[3,2-d][1,3]thiazole-6,7-diol] |
| > 1 | CCNC1=N[C@@H]2[C@@H](O)[C@H](O)[C@@H](COCc3ccccc3)O[C@@H]2S1 [compound no. 8, (3aR,5R,6S,7R,7aR)-5-[(benzyloxy)methyl]-2-(ethylamino)-5,6,7,7a-tetrahydro-3aH-pyrano[3,2-d][1,3]thiazole-6,7-diol] |
| < 0.1 | CCNC1=N[C@@H]2[C@@H](O)[C@H](O)[C@@H](Cn3cc(C4(c5ccccc5)CC4)nn3)O[C@@H]2S1 [compound 99] |
| 0.1 to 0.5 | CCNC1=N[C@@H]2[C@@H](O)[C@H](O)[C@@H](Cn3cc(COC)nn3)O[C@@H]2S1 [compound 11, (3aR,5R,6S,7R,7aR)-2-(ethylamino)-5-{[4-(methoxymethyl)-1H-1,2,3-triazol-1-yl]methyl}-5,6,7,7a-tetrahydro-3aH-pyrano[3,2-d][1,3]thiazole-6,7-diol] |
| > 1 | CCNC1=N[C@@H]2[C@@H](O)[C@H](O)[C@@H](C(=O)OC)O[C@@H]2S1 [compound no. 42, Methyl-(3aR,5S,6S,7R,7aR)-2-(ethylamino)-6,7-dihydroxy-5,6,7,7a-tetrahydro-3aH-pyrano[3,2-d][1,3]thiazole-5-carboxylate] |
| > 1 | CCN(C)C1=N[C@@H]2[C@@H](O)[C@H](O)[C@@H](C(=O)O)O[C@@H]2S1 [compound no. 36, (3aR,5S,6S,7R,7aR)-2-[ethyl(methyl)amino]-6,7-dihydroxy-5,6,7,7a-tetrahydro-3aH-pyrano[3,2-d][1,3]thiazole-5-carboxylic acid] |
| 0.1 to 0.5 | CCNC1=N[C@@H]2[C@@H](O)[C@H](O)[C@@H](Cn3cc(COc4ccccc4CN)nn3)O[C@@H]2S1 [compound 102] |
| 0.1 to 0.5 | CCNC1=N[C@@H]2[C@@H](O)[C@H](O)[C@@H](Cn3cc(COc4cccc(N)c4)nn3)O[C@@H]2S1 [compound 101] |
| > 1 | CCNC1=N[C@@H]2[C@@H](O)[C@H](O)[C@@H](C(=O)CCc3ccccc3)O[C@@H]2S1 [compound no. 59, 1-[(3aR,5S,6S,7R,7aR)-2-(ethylamino)-6,7-dihydroxy-5,6,7,7a-tetrahydro-3aH-pyrano[3,2-d][1,3]thiazol-5-yl]-3-phenylpropan-1-one] |
